# Measurements reported in US4988678A, “Combinations of FU and BVU as anti-adenocarcinoma agents” (priority 1987, dated 1991).
# Key:
# [1] = test system: herpes simplex virus type 1; details: infections caused by herpes simplex virus type 1; cited from earlier work
# varicella zoster virus = details: infections caused by varicella zoster virus; cited from earlier work
# Epstein-Barr virus = details: infections caused by Epstein-Barr virus; cited from earlier work
# [2] = human body, cited from earlier work
# replication of viruses = details: BVU as such; cited from earlier work
# adenocarcinoma 755 = test: Antitumor activity against subcutaneous adenocarcinoma 755 in BDF1 mice, oral FU or FU + BVDU (Example 1); details: for T/C (percent tumor weight with regard to control) / tumor weight, Mean ± SD: p.o. daily, 5 days, day 12
# Protocol: Groups of 6 male BDF1 -mice having a body weight of 21 to 23 g, were subcutaneously inoculated on day 0 with tumor cells of the type adenocarcinoma 755 at a dose of 5=10^5 cells per mouse. Thereupon, the compound FU (or a combination of FU and BVDU) was perorally administered in a predetermined daily dose during 5 consecutive days, starting 24 hours after the inoculation with tumor cells. On day 12, the tumor weight was determined and compared with the tumor weight in a non-treated control group.
# [3] = Toxicity / deaths of mice in Example 1; format: in vivo, male BDF1 mice
# [4] = cited from earlier work
# [5] = FU 30 mg/kg, p.o. daily, 5 days
smiles,measurement,setting,value
"O=c1[nH]c(=O)n([C@H]2C[C@H](O)[C@@H](CO)O2)cc1/C=C/Br [BVDU, (E)-5-(2-bromovinyl)-2'-deoxyuridine]",antiviral activity,[1],active
same,antiviral activity,varicella zoster virus,active
same,antiviral activity,Epstein-Barr virus,active
same,conversion to BVU,[2],rapidly converted
"O=c1[nH]cc(/C=C/Br)c(=O)[nH]1 [BVU, 5-(2-bromovinyl)uracil]",activity against replication of viruses,replication of viruses,inactive
same,presence in the blood stream,[2]; after conversion from BVDU,remains present in the blood stream for a relatively long period
"O=c1[nH]c(=O)n(C2CCCO2)cc1F (stereo not shown) [FT, N1-(2'-tetrahydrofuryl)-5-fluorouracil]",conversion to FU,[2],converted slowly to FU
"O=c1[nH]cc(F)c(=O)[nH]1 [FU, 5-fluorouracil]",T/C (percent tumor weight with regard to control),adenocarcinoma 755; FU 5 mg/kg,122%
same,"tumor weight, Mean ± SD",adenocarcinoma 755; FU 5 mg/kg,2523 ± 389 mg
same,T/C (percent tumor weight with regard to control),adenocarcinoma 755; FU 10 mg/kg,85%
same,"tumor weight, Mean ± SD",adenocarcinoma 755; FU 10 mg/kg,1759 ± 726 mg
same,T/C (percent tumor weight with regard to control),adenocarcinoma 755; FU 20 mg/kg,32%
same,"tumor weight, Mean ± SD",adenocarcinoma 755; FU 20 mg/kg,675 ± 355 mg
same,therapeutic index (ratio of LD50 to ED50),adenocarcinoma 755; FU used alone,2
same,ED50,"adenocarcinoma 755; Mus musculus, po, 288 h, read-out: ED50 (dose causing a 50% reduction of T/C)",15 mg/kg
same,died (animals of group),[3]; [5],3/6
same,toxicity (in words),[3]; [5],Toxic
same,LD50,"[3]; mouse, in vivo, po, FU used alone, from the Table (doses in mg/kg), read-out: LD50 (50% lethal dose)",30 mg/kg
same,degradation in the liver,[4],degraded rather rapidly
